Patent US20250312469A1 (CANGET BIOTEKPHARMA, priority 2024, published 2025)
Where two headings read alike, the source gives them in different places. Marks after values point to notes of the source that are not given here.

[1] = Female, 4.69→ 2 mg/kg/wk, Day 15
[2] = female rats, 4.69→2 mg/kg/wk, Day 15
[3] = female rats, Group 3, 3.75/2.5 mg/kg/wk oral, Day 15
[4] = female rats, Group 4, 4.69/2 mg/kg/wk oral, Day 15
[5] = male rats, 4.69→2 mg/kg/wk, Day 15, 2 animals
[6] = male rats, Group 2, 3 mg/kg/wk, Day 15

CCC1(O)C(=O)OCc2c1cc1n(c2=O)Cc2cc3cc4c(cc3nc2-1)OCO4 (centres unmarked) [FL118]
decrease of body weight, males, Day 14 (3 mg/kg/wk): 18.15%
decrease of body weight, males, Day 14 (3.75→2.5 mg/kg/wk): 17.41%
mortality (4.69 (day 1) and 2 mg/kg/wk (day 8)): two male mice died on day 6 and day 12
decrease of body weight, males, Day 14 (4.69→2 mg/kg/wk): 47.53%
#LYMP, percent difference in mean values from concurrent controls [1]: −37.76%
WBC, percent difference in mean values from concurrent controls [1]: −33.69%
WBC, percent difference in mean values from concurrent controls (Male, 3 mg/kg/wk, Day 15): −16.11%
WBC, percent difference in mean values from concurrent controls (Male, 3.75→ 2.5 mg/kg/wk, Day 15): −11.98%
#LYMP, percent difference in mean values from concurrent controls (Male, 4.69→ 2 mg/kg/wk, Day 15): −57.17%
WBC, percent difference in mean values from concurrent controls (Male, 4.69→ 2 mg/kg/wk, Day 15): −52.17%
ALT, percent difference in mean values from concurrent controls [2]: 122%
sGLU, percent difference in mean values from concurrent controls [2]: −19.47%
#BASO, basophils, absolute, Mean [3]: 0.01 10^3/μL
#EOS, eosinophils, absolute, Mean [3]: 0.07 10^3/μL
#LYMP, lymphocytes, absolute, Mean [3]: 5.87 10^3/μL
#MONO, monocytes, absolute, Mean [3]: 0.17 10^3/μL
#NEUT, neutrophils, absolute, Mean [3]: 0.87 10^3/μL
% BASO, basophils, percent, Mean [3]: 0.2%
% EOS, eosinophils, percent, Mean [3]: 1.0%
% LYMP, lymphocytes, percent, Mean [3]: 83.5%
% MONO, monocytes, percent, Mean [3]: 2.4%
% NEUT, neutrophils, percent, Mean [3]: 12.1%
% RET, reticulocytes, percent, Mean [3]: 5.05%
ALB, albumin, Mean [3]: 37.5 g/L
ALP, alkaline phosphatase, Mean [3]: 83 U/L
ALT, alanine aminotransferase, Mean [3]: 33 U/L
AST, aspartate aminotransferase, Mean [3]: 89 U/L
BIL-T, total bilirubin, Mean [3]: 1.59 µmol/L
CK, creatine kinase, Mean [3]: 247 U/L
CRE, creatinine, Mean [3]: 24 µmol/L
Ca, calcium, Mean [3]: 2.42 mmol/L
GLB, globulin, Mean [3]: 23.0 g/L
HCT, hematocrit, Mean [3]: 19.8%
HGB, hemoglobin, Mean [3]: 13.2 g/dL
K, potassium, Mean [3]: 4.3 mmol/L
MCH, mean corpuscular hemoglobin, Mean [3]: 19.3 pg
MCHC, mean corpuscular hemoglobin concentration, Mean [3]: 33.3 g/dL
MCV, mean corpuscular volume, Mean [3]: 58.0 fL
MPV, mean platelet volume, Mean [3]: 6.8 fL
Na, sodium, Mean [3]: 142 mmol/L
P, inorganic phosphorus, Mean [3]: 2.20 mmol/L
PLT, platelet count, Mean [3]: 1295 10^3/μL
RBC, red blood cell, Mean [3]: 6.88 10^6/μL
RDW, RBC distribution width, Mean [3]: 12.9* %
TCHO, total cholesterol, Mean [3]: 1.70 mmol/L
TG, triglyceride, Mean [3]: 0.26 mmol/L
UREA, urea, Mean [3]: 6.29 mmol/L
WBC, white blood cell, Mean [3]: 7.03 10^3/μL
sGLU, glucose, Mean [3]: 9.43 mmol/L
#BASO, basophils, absolute, Mean [4]: 0.01 10^3/μL
#EOS, eosinophils, absolute, Mean [4]: 0.05 10^3/μL
#LYMP, lymphocytes, absolute, Mean [4]: 4.03 10^3/μL
#MONO, monocytes, absolute, Mean [4]: 0.13 10^3/μL
#NEUT, neutrophils, absolute, Mean [4]: 0.62 10^3/μL
% BASO, basophils, percent, Mean [4]: 0.1%
% EOS, eosinophils, percent, Mean [4]: 1.0%
% LYMP, lymphocytes, percent, Mean [4]: 82.7%
% MONO, monocytes, percent, Mean [4]: 2.9%
% NEUT, neutrophils, percent, Mean [4]: 12.7%
% RET, reticulocytes, percent, Mean [4]: 4.79%
ALB, albumin, Mean [4]: 36.6 g/L
ALP, alkaline phosphatase, Mean [4]: 88 U/L
ALT, alanine aminotransferase, Mean [4]: 75 U/L
AST, aspartate aminotransferase, Mean [4]: 222 U/L
BIL-T, total bilirubin, Mean [4]: 2.66 µmol/L
CK, creatine kinase, Mean [4]: 427 U/L
CRE, creatinine, Mean [4]: 24 µmol/L
Ca, calcium, Mean [4]: 2.37 mmol/L
GLB, globulin, Mean [4]: 22.0 g/L
HCT, hematocrit, Mean [4]: 40.0%
HGB, hemoglobin, Mean [4]: 13.6 g/dL
K, potassium, Mean [4]: 4.6 mmol/L
MCH, mean corpuscular hemoglobin, Mean [4]: 19.6 pg
MCHC, mean corpuscular hemoglobin concentration, Mean [4]: 33.8 g/dL
MCV, mean corpuscular volume, Mean [4]: 57.8 fL
MPV, mean platelet volume, Mean [4]: 6.7 fL
Na, sodium, Mean [4]: 142 mmol/L
P, inorganic phosphorus, Mean [4]: 1.92 mmol/L
PLT, platelet count, Mean [4]: 1278 10^3/μL
RBC, red blood cell, Mean [4]: 6.94 10^6/μL
RDW, RBC distribution width, Mean [4]: 13.7* %
TCHO, total cholesterol, Mean [4]: 1.37 mmol/L
TG, triglyceride, Mean [4]: 0.29 mmol/L
TP, total protein, Mean [4]: 58.5 g/L
UREA, urea, Mean [4]: 9.54 mmol/L
WBC, white blood cell, Mean [4]: 4.85 10^3/μL
sGLU, glucose, Mean [4]: 8.25 mmol/L
ALT, percent difference in mean values from concurrent controls (male rats, 3 mg/kg/wk, Day 15): 19%
ALT, percent difference in mean values from concurrent controls (male rats, 3.75→2.5 mg/kg/wk, Day 15): 34%
ALT, percent difference in mean values from concurrent controls [5]: 275%
sGLU, percent difference in mean values from concurrent controls [5]: −59.96%
#BASO Mean [6]: 0.02 10^3/μL
#EOS Mean [6]: 0.06 10^3/μL
#LYMP Mean [6]: 7.94 10^3/μL
#MONO Mean [6]: 0.21 10^3/μL
#NEUT Mean [6]: 0.72 10^3/μL
#RET Mean [6]: 337.2 10^9/L
% BASO Mean [6]: 0.2%
% EOS Mean [6]: 0.7%
% LYMP Mean [6]: 88.2%
% MONO Mean [6]: 2.5%
% NEUT Mean [6]: 7.9%
% RET Mean [6]: 4.68%
HCT Mean [6]: 42.1* %
MCH Mean [6]: 19.2 pg
MCHC Mean [6]: 32.8 g/dL
MCV Mean [6]: 58.3 fL
MPV Mean [6]: 6.6 fL
PLT Mean [6]: 1172 10^3/μL
RBC Mean [6]: 7.22 10^6/μL
RDW Mean [6]: 13.5** %
WBC Mean [6]: 9.01 10^3/μL
#BASO % Diff (male rats, Group 2, 3 mg/kg/wk, Day 15, vs Group 1): −25.00%
